Legend:
[1] = target: T1, human adenosine-A2B receptors (Homo sapiens, UniProt P29275); test: In vitro affinity for human adenosine-A2B receptors (radioligand [3H]MRS 1754); format: binding; details: human recombinant receptors expressed in HEK-293 cells; for Ki: read-out: Adenosine receptor affinity (binding) A2B pKi (converted)
T1 construct: expressed in transfected cells; host or cells: HEK-293 cells
T1 sequence (P29275 1-332): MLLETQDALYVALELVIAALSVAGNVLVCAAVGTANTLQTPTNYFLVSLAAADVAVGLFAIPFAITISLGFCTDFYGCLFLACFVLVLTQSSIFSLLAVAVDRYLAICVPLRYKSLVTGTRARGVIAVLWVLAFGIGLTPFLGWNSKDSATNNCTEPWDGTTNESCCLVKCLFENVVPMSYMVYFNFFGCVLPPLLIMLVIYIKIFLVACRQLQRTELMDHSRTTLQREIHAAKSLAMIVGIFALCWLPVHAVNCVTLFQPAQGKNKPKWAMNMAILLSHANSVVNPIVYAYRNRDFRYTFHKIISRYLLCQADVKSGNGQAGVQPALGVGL
Description: Affinity of the compounds for human adenosine-A2B receptors was determined using the receptor binding assay described by J. H. Stehle et al. (Mol. Endocrinol., 6, 384, 1992), using human recombinant receptors expressed in HEK-293 cells, and [^3H]MRS 1754 as radioligand.

[2] = target: T2, human adenosine-A2A receptors (Homo sapiens, UniProt P29274); test: In vitro affinity for human adenosine-A2A receptors (radioligand [3H]CGS 21680); format: binding; details: human recombinant receptors expressed in HEK-293 cells; for Ki: read-out: Adenosine receptor affinity (binding) A2A pKi (converted)
T2 construct: expressed in transfected cells; host or cells: HEK-293 cells
Description: Affinity of the compounds for human adenosine-A2A receptors was determined using the receptor binding assay described by D. R. Luthin et al., (Mol. Pharmacol., 47, 307, 1995), using human recombinant receptors expressed in HEK-293 cells, and [^3H]CGS 21680 as radioligand.

[3] = target: T3, human Adenosine A3 receptor (Homo sapiens, UniProt P0DMS8); test: In vitro functional activity on human adenosine A3 receptors using an Aequorin-based assay; format: cell-based; design: A. et al. (Acc. Number GenBank: L22607); host or cells: CHO-K1 cells stably expressing mitochondrially targeted aequorin and Galpha16; details: hA3-Aequorin CHO-K1 cells; for Kb: read-out: Functional activity A3 antagonism pA2 (converted); for EC50: agonist mode, concentrations up to 10^−5 M, read-out: Functional activity A3 agonism pEC50 (converted)
T3 sequence (P0DMS8 1-318): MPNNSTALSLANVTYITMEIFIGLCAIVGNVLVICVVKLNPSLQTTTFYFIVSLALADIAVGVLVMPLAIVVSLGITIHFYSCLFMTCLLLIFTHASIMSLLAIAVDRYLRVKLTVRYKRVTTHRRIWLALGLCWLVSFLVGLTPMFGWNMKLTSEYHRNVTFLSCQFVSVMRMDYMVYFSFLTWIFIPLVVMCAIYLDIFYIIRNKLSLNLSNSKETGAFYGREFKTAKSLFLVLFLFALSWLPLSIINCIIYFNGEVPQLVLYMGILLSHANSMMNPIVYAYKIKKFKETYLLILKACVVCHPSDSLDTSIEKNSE
Excerpt: A stable monoclonal hA3-Aequorin cell line was provided by Euroscreen. The coding region encoding the human Adenosine A3 receptor was amplified by polymerase chain reaction (PCR), using human lung cDNA as template. The PCR product was ligated in the expression vector pEFIN3 (Invitrogen), and the complete sequence of the insert was then established. […] A. et al. (Acc. Number GenBank: L22607). The expression plasmid containing the coding sequence of the human Adenosine A3 receptor was transfected in CHO-K1 cells stably expressing mitochondrially targetted Aequorin and Gα16. Resistant clones were selected in the presence of 400 μg/ml G418 and isolated by limiting dilution. […] The hA3-Aequorin cells express mitochondrially targetted apo-Aequorin. Cells have to be loaded with coelenterazine, in order to reconstitute active Aequorin. After binding of agonists to the hA3 receptor, the intracellular calcium concentration increases, which leads to a luminescent response. Binding of calcium to the apo-Aequorin/coelenterazine complex leads to an oxidation reaction of coelenterazine, which results in the production of apo-Aequorin, coelenteramide, CO2 and light (λmax 469 nm). This luminescent response is dependent on the agonist concentration.
Assay-protocol: • Dilute the loaded cells 18× in Dulbecco's medium without PhenolRed (Gibco BRL), pre-heated to 37° C., resulting in a concentration of 2.8*10^5 cells/ml. • Stir for 1 hour at room temperature. • Add 10 μl compound or control per well in white 96-well plates. • Add 90 μl of diluted cells (2.5*10^4 cells/well). • Measure chemoluminescence immediately for 20 seconds. • In antagonist mode 50 μl 10^−6 N6-benzyl-NECA is added as the agonist. • Measure chemoluminescence immediately for 20 seconds using the MicroBetaJet (PerkinElmer).

[4] = target: T4, human adenosine-A1 receptors (Homo sapiens, UniProt P30542); test: In vitro affinity for human adenosine-A1 receptors (radioligand [3H]DPCPX); format: binding; details: human recombinant receptors expressed in CHO cells; for Ki: read-out: Adenosine receptor affinity (binding) A1 pKi (converted)
T4 construct: expressed in transfected cells; host or cells: CHO cells
T4 sequence (P30542 1-326): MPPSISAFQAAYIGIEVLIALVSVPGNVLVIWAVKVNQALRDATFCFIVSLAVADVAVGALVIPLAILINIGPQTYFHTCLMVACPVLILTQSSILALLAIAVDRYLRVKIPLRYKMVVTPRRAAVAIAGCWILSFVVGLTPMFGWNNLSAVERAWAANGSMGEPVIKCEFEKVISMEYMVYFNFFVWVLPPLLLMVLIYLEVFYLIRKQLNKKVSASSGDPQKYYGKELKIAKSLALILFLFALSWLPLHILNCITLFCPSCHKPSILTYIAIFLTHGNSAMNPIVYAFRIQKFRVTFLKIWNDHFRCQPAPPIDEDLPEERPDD
Description: Affinity of the compounds for human adenosine-A1 receptors was determined using the receptor binding assay described by A. Townsend-Nicholson and P. R. Schofield (Biol. Chem., 269, 2373, 1994), using human recombinant receptors expressed in CHO cells, and [^3H]DPCPX as radioligand.

[5] = target: T3, human Adenosine A3 receptor; test: In vitro affinity for human adenosine-A3 receptors (radioligand [125I]-AB-MECA); format: binding; design: expressed in transfected cells; host or cells: HEK 293 cells (membrane preparations); details: membranes of HEK 293 cells stably expressing human A3, [125I]-AB-MECA, 22° C., 90 minutes; read-out: Adenosine receptor affinity (binding) A3 pKi (converted)
Description: Affinity of the compounds for human adenosine-A3 receptors was determined using the receptor binding assay described by C. A. Salvatore et al.: “Molecular cloning and characterization of the human A3 adenosine receptor”, Proc. Natl. Acad. Sci. USA, 90, 10365-10369, 1993. Briefly, membrane preparations were obtained from human recombinant (HEK 293) cells in which the human adenosine-A3 receptor was stably expressed. […] Separation of bound radioactivity from free was done by filtration through Packard GF/B glass fiber filters with several washings with ice-cold buffer using a Packard cell harvester. Bound radioactivity was measured with a scintillation counter (Topcount, Packard) using a liquid scintillation cocktail (Microscint 0, Packard). […] Determination of In Vitro Functional Activity on Human Adenosine A3 Receptors Using an Aequorin-based Assay

[6] = antagonist mode, N6-benzyl-NECA as the agonist

T2 sequence (P29274 whole entry): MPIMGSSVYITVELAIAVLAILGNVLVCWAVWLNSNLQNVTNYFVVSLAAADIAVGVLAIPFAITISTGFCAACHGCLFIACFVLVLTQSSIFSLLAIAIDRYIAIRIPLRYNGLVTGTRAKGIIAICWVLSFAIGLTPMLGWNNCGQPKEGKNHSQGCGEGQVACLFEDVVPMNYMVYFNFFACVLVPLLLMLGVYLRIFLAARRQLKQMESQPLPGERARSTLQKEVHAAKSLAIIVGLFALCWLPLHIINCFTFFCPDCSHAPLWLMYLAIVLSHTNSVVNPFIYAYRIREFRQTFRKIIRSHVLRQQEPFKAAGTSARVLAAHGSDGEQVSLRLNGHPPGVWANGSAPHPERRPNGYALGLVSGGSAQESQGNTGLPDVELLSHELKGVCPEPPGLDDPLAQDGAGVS

| SMILES | Ki [1] [µM] | Ki [2] [µM] | Kb [3, 6] [nM] | Ki [4] [µM] | Ki [5] [nM] | melting point [°C] | EC50 [3] [µM] | Adenosine receptor affinity (binding) A2B pKi [1] | Adenosine receptor affinity (binding) A2A pKi [2] | Functional activity A3 antagonism pA2 [3, 6] | Adenosine receptor affinity (binding) A1 pKi [4] |
| --- | --- | --- | --- | --- | --- | --- | --- | --- | --- | --- | --- |
| OC[C@H]1O[C@@H](n2cnc3c(C(F)(F)F)nc(NCc4ccccc4)nc32)[C@H](O)[C@@H]1O [Compound 8, 2-benzylamino-6-trifluoromethyl-9-β-D-ribofuranosyl purine] | > 10 | 12.6 | 39.8 | 7.94 | 316 |  |  |  |  |  |  |
| FC(F)(F)c1nc(NCc2ccccc2)nc2nc[nH]c12 [Compound 6, 6-trifluoromethyl-2-benzylamino purine] | > 10 | 20 | 158 | 3.98 | 20 |  | > 10 |  |  |  |  |
| Cn1cnc2c(C(F)(F)F)nc(NCc3ccccc3)nc21 [Compound 7, 6-trifluoromethyl-9-methyl-2-benzylamino purine] | > 10 | > 10 | 1580 | > 10 | 3160 |  | > 10 |  |  |  |  |
| OC[C@H]1O[C@@H](n2cnc3c(C(F)(F)F)nc(N4CCC(O)CC4)nc32)[C@H](O)[C@@H]1O [Compound 4, 2-(4-OH-piperidinyl)-6-trifluoromethyl-9-β-D-ribofuranosyl purine] |  | > 10 | 200 | > 10 | 15800 |  | > 10 |  |  |  |  |

Now from value to molecule:

| Ki [1] [µM] | Ki [2] [µM] | Kb [3, 6] [nM] | Ki [4] [µM] | Ki [5] [nM] | melting point [°C] | EC50 [3] [µM] | Adenosine receptor affinity (binding) A2B pKi [1] | Adenosine receptor affinity (binding) A2A pKi [2] | Functional activity A3 antagonism pA2 [3, 6] | Adenosine receptor affinity (binding) A1 pKi [4] | SMILES |
| --- | --- | --- | --- | --- | --- | --- | --- | --- | --- | --- | --- |
|  | > 10 |  | > 10 | 1000 | 131 to 139 |  |  |  |  |  | Cn1c(Br)nc2c(C(F)(F)F)nc(NCCc3ccccc3)nc21 [Compound 11, 8-bromo-6-trifluoromethyl-9-methyl-2-phenethylamino purine] |
| > 10 | 12.6 | 2 | 1 | 12.6 |  | > 10 |  |  |  |  | FC(F)(F)c1nc(NCCc2ccccc2)nc2nc[nH]c12 [Compound 9, 6-trifluoromethyl-2-phenethylamino purine] |
|  |  |  |  |  |  |  | <5.0 | <5.0 | 9.8 | <5.0 | OC[C@H]1O[C@@H](n2cnc3c(C(F)(F)F)nc(NCCc4ccccc4)nc32)[C@H](O)[C@@H]1O [Compound 26, 2-phenethylamino-6-CF3-9-β-D-ribofuranosyl purine] |
| 12.6 | 15.8 | 3160 | 6.31 | 1580 |  | > 10 |  |  |  |  | Cn1cnc2c(C(F)(F)F)nc(NCCc3ccccc3)nc21 [Compound 10, 6-trifluoromethyl-9-methyl-2-phenethylamino purine] |
